Measurements as given in patent US20060275835A1, “Methods for identifying cell surface receptor protein modulators” (priority 2003, published 2006).

Assays:
Assay type in all cases: cell-based
mGluR5 [1] = target: T1, mGluR5 (Homo sapiens, UniProt P41594); test: β-lactamase reporter gene assay in mGluR5CHONFAT co-expressing mGLAST
T1 construct: expressed in transfected cells
From the text: (§1) Aurora transcription based reporter cell lines were used to develop reporter gene assays for the mGluRs. The cell line, CHONFAT-β-lactamase, reports signaling through Gq-coupled receptors via an increase in intracellular calcium. The β-lactamase gene is under the transcriptional control of the nuclear factor of activated T-cells (N-FAT) promoter (reporting increased intracellular calcium). A second cell line Gqi5CHONFAT was utilized for Gi coupled mGluRs. This cell line contains a promiscuous G-protein that promotes coupling to a Gq signal transduction cascade. […] The production of β-lactamase resulting from the downstream signaling events of receptor activation is detected by loading cells with a fluorescent dye, CCF2-AM, a substrate cleavable by the β-lactamase enzyme. In its cleaved state, the substrate will fluoresce blue (EM460) when stimulated with UV light (395 nm). Noncleaved, the intact dye fluoresces green (EM530) (Science 1998, 279:84-88). The ratio of blue to green cells (Em460/530) is determined as a measure of signal transduction, with cells that have transduced a signal being blue and those that have not green.
Cells were plated at 80,000 cells per well in poly-D-lysine coated black clear bottom plates (Becton Dickinson) and grown in glutamate/glutamine free media (DMEM, -glutamine, 10% dialyzed fetal calf serum, 100 units/ml penicillin/streptomycin, 0.1 mM non-essential amino acids, 1 mM sodium pyruvate, 25 mM HEPES, 0.25 mg/mL zeocin, 10 μg/ml puromycin (Clontech 8052-2) and 1 mg/mL G418 for cell lines co-expressing mGluRs and mGLAST. All media was from GIBCO unless specified. Cells were grown overnight at 5% CO2, 37° C. The next day, media was aspirated and the cells were washed twice with serum-free DMEM and replaced with 100 μL of assay media (DMEM, glutamine free), 0.1% BSA, 25 mM HEPES. […] Plates were read 45-60 minutes later on a fluorescence plate reader (excitation 405±10 nm, emission 460±20 nm for blue; 530±15 nm. Wells containing dye and no cells were used to subtract background values.

mGluR5 [2] = target: T1, mGluR5; test: β-lactamase reporter gene assay in mGluR5CHONFAT cells without mGLAST co-expression; conditions: 1 μM quisqualate
From the text: as §1, with “green. […]” for “green.”

mGluR5 [3] = target: T1, mGluR5; test: FLIPR Ca2+ flux assay in human mGluR5 CHONFAT/mGLAST cells; conditions: Fluo-4, FLIPR384, normalized to glutamate (10 μM) control maximum; EC50 values only in figure
Protocol: Agonists were added after 10 seconds of baseline determination. Data were normalized to a glutamate (10 μM) control maximum. Concentration-response curves were generated from mean data of 5 experiments. Error bars are SEM.
CHO cells expressing mGluR5 receptors (mGluR5 CHO cells) were plated in clear-bottomed, poly-D-lysine coated 384-well plates (Becton-Dickinson 35-6663 Franklin Lakes USA) in glutamate/glutamine-free medium using a Multidrop 384 cell dispenser (Thermo Labsystems, Franklin USA). The plated cells were grown overnight at 37° C. in the presence of 6% CO2. The following day, the cells were washed with 3×100 μl assay buffer (Hanks Balanced Salt Solution (Gibco 14025) containing 20 mM HEPES (Gibco 15630), 2.5 mM probenicid (Sigma P-8761), and 0.1% bovine serum albumin (Sigma) using an Embla cell washer (Skatron, Lier Norway). The cells were incubated with 1 μM Fluo-4AM (Molecular Probes) for 1 h at 37° C. and 6% CO2. The extracellular dye was removed by washing as described above. Ca^2+ flux was measured using FLIPR384, fluorometric imaging plate reader (Molecular Devices, Sunnyvale USA). For potency determination, the cells were pre-incubated with various concentrations of compound for 5 min and then stimulated for 3 min with either an EC20 or EC50 concentration of agonist (i.e. glutamate) for potentiation measurements or antagonist measurements, respectively.

CHONFAT cells = test: β-lactamase reporter gene assay in non-transfected CHONFAT cells; conditions: 200 nM thapsigargin; maximal fluorescence
From the text: as §1, with “green. […]” for “green.”

T1 sequence (P41594 21-1212): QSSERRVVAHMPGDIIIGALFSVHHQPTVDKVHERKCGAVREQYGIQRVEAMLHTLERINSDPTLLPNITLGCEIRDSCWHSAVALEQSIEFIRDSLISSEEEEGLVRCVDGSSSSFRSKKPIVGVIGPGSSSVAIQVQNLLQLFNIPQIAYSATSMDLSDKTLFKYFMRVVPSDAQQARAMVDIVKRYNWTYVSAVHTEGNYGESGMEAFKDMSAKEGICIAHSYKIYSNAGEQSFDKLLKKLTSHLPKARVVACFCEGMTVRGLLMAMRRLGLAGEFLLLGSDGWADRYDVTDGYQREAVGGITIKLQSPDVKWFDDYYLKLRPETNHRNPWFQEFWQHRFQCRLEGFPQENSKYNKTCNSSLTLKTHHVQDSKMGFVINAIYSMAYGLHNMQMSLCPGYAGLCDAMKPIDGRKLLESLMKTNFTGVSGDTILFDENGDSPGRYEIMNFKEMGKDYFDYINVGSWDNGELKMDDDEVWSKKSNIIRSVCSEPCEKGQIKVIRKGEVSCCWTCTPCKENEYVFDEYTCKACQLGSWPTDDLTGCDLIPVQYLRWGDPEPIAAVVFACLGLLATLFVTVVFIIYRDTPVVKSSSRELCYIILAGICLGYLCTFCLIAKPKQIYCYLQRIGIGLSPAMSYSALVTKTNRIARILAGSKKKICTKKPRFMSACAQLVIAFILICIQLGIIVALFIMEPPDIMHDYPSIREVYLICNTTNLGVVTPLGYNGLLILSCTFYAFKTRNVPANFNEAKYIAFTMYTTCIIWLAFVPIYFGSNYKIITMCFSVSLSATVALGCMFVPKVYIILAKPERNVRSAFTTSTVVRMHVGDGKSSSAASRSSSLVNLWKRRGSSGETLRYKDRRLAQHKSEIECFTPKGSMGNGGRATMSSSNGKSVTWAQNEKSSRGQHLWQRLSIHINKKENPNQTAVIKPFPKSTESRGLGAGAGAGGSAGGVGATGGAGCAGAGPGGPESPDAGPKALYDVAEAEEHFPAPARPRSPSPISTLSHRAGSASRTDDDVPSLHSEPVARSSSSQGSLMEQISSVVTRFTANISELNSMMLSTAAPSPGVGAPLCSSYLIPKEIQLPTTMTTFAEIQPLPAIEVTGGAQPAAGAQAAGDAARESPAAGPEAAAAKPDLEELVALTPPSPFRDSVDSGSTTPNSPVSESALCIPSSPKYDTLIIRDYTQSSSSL

## N[C@@H](Cn1oc(=O)[nH]c1=O)C(=O)O [quisqualate]
mGluR5 [1]; 10 μM quisqualate, with mGLAST co-expression
  fluorescence ratio (EM460/530): 1.35
mGluR5 [1]; dose response in the absence of positive allosteric modulator
  EC50: 44 nM
mGluR5 [1]; dose response in the presence of 10 μM positive allosteric modulator
  EC50: 15 nM
mGluR5 [2]
  fluorescence ratio (EM460/530): 0.85
mGluR5 [3]
  activation of Ca^2+ transients: activate Ca^2+ transients

## N[C@@H](CCC(=O)O)C(=O)O [glutamate]
mGluR5 [3]
  activation of Ca^2+ transients: activate Ca^2+ transients

## NC(C(=O)O)c1cc(O)cc(O)c1 (centres unmarked) [3,5-DHPG]
mGluR5 [3]
  activation of Ca^2+ transients: activate Ca^2+ transients

## C/C=C(/C)C(=O)O[C@H]1C(C)=C2[C@H]([C@@H]1OC(=O)CCCCCCC)[C@@](C)(OC(C)=O)C[C@H](OC(=O)CCC)[C@@]1(O)[C@H]2OC(=O)[C@@]1(C)O [thapsigargin]
CHONFAT cells
  fluorescence ratio (EM460/530): 1.0
